Test results as given in publication PMC11979685, “Synthesis of Derivatives of the Antibiotic Albicidin: The N‐Terminal Fragment as Key to Control Potency and Resistance Mediated by the Binding Protein AlbA” (Chemistry (Weinheim an Der Bergstrasse, Germany), 2025).
In brackets after ≈: the same amount, converted by molar mass. Like-named read-outs stand apart in the source and are kept apart here.

Key:
[1] = test system: Mycobacterium phlei DSM 750; assay: MIC determination (broth microdilution); type: cell-based
Procedure: (§1) After completing the syntheses, the antibacterial activity of A‐variations 4–24 was assessed by determination of MIC values against a basic set of gram‐negative and gram‐positive bacteria (Table 1). The monocyclic derivatives 4–8 featuring a cyano‐, trifluoromethyl‐, methoxy‐ and fluoro‐ substituent in para‐position were very active against the gram–negative E. coli and S. typhimurium strains with MIC values in the same range as 3rd Gen albicidin 3 or ciprofloxacin which is the gold standard for gyrase inhibitors. […] These findings are in agreement with previous studies showing good activities for cyano, trifluoromethyl, methoxy and fluoro substituents in the para‐position of different aromatic rings in the building block A.[12, 13] The activity of the monocyclic derivatives 4–8 against the gram‐positive strains B. subtilis and M. luteus were similar but slightly less pronounced compared to the lead structure 3.
(§2) 1.1 Determination of Minimal Inhibitory Concentrations (MIC)
(§3) Minimal inhibitory concentration (MIC) against selected bacterial strains values were determined according to the ninth edition of the Approved Standard M07-A9.[1] 20 μL of cryo stocks of bacterial strains were suspended in 20 mL LB medium (Lysogeny broth: 10 g/L peptone, 5 g/L yeast extract, 5 g/L NaCl). Following incubation overnight at 37°C, 200 rpm, the test inoculum was adjusted by 0.5 McFarland Standard in cation adjusted Mueller-Hinton broth (BBLTM Mueller-Hinton Broth II, Becton, Dickinson and Company, New Jersey, USA) to approximately 1x10^6 CFU mL-1. 95 μL of the bacterial inoculum were applied per well of a 96-well plate. Albicidin and albicidin derivatives 3−24 were dissolved in DMSO (100%) to an initial concentration of 2560 μg/mL and serially diluted in DMSO (100%). Initial solution and serial dilutions of Ciprofloxacin were prepared in 0.1 N HCL, respectively. 5 μL of each antibiotic dilution were added to the microdilution tray to reach albicidin concentrations of 128 μg/mL to 0.016 μg/mL per well. One row of each well plate served as a growth control without antibiotic substances and another row of the microdilution tray served as sterility control (only MHB II - media). The antimicrobial effect of the solvent (DMSO) was tested by adding 5 μL DMSO to several wells. Purity check and cell titer control were performed according to International S tandard M07-A9 on Mueller-Hinton II Agar (Mueller Hinton II Broth, 15 g/L agar-agar). Both microdilution trays and agar plates were incubated at 30−37°C for 16 h and subsequently analyzed for growth inhibition by naked eye. The following primary panel of microorganisms were purchased from German Collection of Microorganisms and Cell Cultures (DSMZ):
(§4) Escherichia coli DSM 1116
(§5) Micrococcus luteus DSM 1790
(§6) Mycobacterium phlei DSM 750
(§7) Salmonella typhimurium TA100 was kindly provided by Prof. Dr. Vera Meyer (Technische Universität Berlin). […]
(§8) was purchased as part of the single gene knockout library of E. coli K12 BW25113 (Keio collection) from Horizon Discovery group plc (Cambridge, UK).

[2] = test system: Micrococcus luteus DSM 1790; assay: MIC determination (broth microdilution); type: cell-based; conditions: DSM1790, read-out: MIC M. luteus
Procedure: as §1, §2, §3, §4, §5, §6, §7, §8

[3] = test system: E. coli BW25113; assay: MIC determination (broth microdilution); type: cell-based
Procedure: as §1, §2, §3, §4, §5, §6, §7, §8

[4] = test system: Bacillus subtilis DSM 10; assay: MIC determination (broth microdilution); type: cell-based; conditions: DSM10, read-out: MIC B. sub.
Procedure: as §1, §2, §3, §4, §5, §6, §7, §8

[5] = test system: E. coli DSM1116; assay: MIC determination (broth microdilution); type: cell-based
Procedure: as §1, §2, §3, §4, §5, §6, §7, §8

[6] = target: E. coli DNA gyrase (Escherichia coli, UniProt P0AES4); assay: E. coli gyrase DNA cleavage assay; type: biochemical; parameters: key to Gyrase inhibition strong+ / weak −: + strong inhibition; − weak inhibition in comparison to compound 16; conditions: for CC50: E. coli gyrase DNA cleavage, read-out: CC50 (concentration at half-maximum cleavage); for Gyrase inhibition strong+ / weak −: qualitative DNA cleavage assay at 1 μM and 10 μM, in comparison to compound 16
Procedure: The target activity of the synthesized derivatives was investigated using a DNA cleavage assay with purified and enzymatically active E. coli DNA gyrase[8] (see SI). In this assay, albicidin‐stabilized complexes of gyrase and plasmid DNA are trapped, and subsequently denatured and deproteinated to reveal DNA linearized by gyrase. […] For the best performing compounds, which were able to fully stabilize the cleavage complex at a concentration of 1 μM, the concentrations at half‐maximum cleavage (CC50) were determined (Figure 3).
1.2 Escherichia coli Gyrase Cleavage Inhibition Assay
E. coli gyrase cleavage assays were executed by setting up a master mix including 0.25 µg relaxed plasmid (pBR322) in 35 mM Tris-HCl (pH 7.5), 24 mM KCl, 4 mM MgCl2, 2 mM dithithreitol (DTT), 1.8 mM spermidine, 1 mM ATP, 6.5% (wt/vol) glycerol and 0.1 mg/ml bovine serum albumin per reaction.
Of this stock solution, 13.2 µL was aliquoted for each reaction into 1.5 mL Eppendorf tubes and supplemented with 0.3 µL of the appropriate compound dilution or DMSO with a […] DMSO concentration of 2% per reaction. The reactions were started with 1.5 µL of 50 nM (pre-screening) or 40 nM (IC50 determinations) wt E. coli gyrase in dilution buffer (50 mM Tris-HCl (pH 7.5), 100 mM KCl, 2 mM DTT, 1 mM EDTA, and 50% (wt/vol) glycerol) for a […] volume of 15 µL. Reactions were incubated at 37°C for 30 minutes before addition of 1.5 µL 0.2% (wt/vol) SDS and 0.75 µL proteinase K (0.2 mg/mL) and further incubation at 37°C for 30 minutes to trap cleavage complexes. Reactions were stopped with 15 µL chloroform:isoamyl alcohol (24: 1 v/v) and 15 µL of STEB (40% (wt/vol) sucrose, […] Tris-Cl pH 8, 10 mM EDTA, 0.5 mg/mL bromophenol blue). After brief vortexing and centrifugation at 2,300g for 5 min, 15 µL of the aqueous phase was loaded onto 1% (wt/vol) agarose in TAE (Tris-acetate […] and EDTA […]) gels supplemented with 10 µg/mL ethidium bromide.
The gels were run at 85 V for 2 hours.
DNA was visualized (602/50, UV Trans, auto optimal exposure) with a ChemiDoc MP (Bio-Rad Laboratories Inc., equipped with ImageLab Touch Software v2.0.0.27) and the percentage of cleaved DNA relative to the total amount of DNA per lane was determined with ImageJ software.[2] IC50 curves were generated in GraphPad Prism (v10.0.0) using the non-linear regression curve fit variable slope with four parameters and least squares regression.

[7] = Mycolicibacterium phlei, DSM750; read-out: MIC M. phlei
[8] = Escherichia coli, BW25113; read-out: MIC E. coli BW25113
[9] = Escherichia coli, DSM1116; read-out: MIC E. coli DSM1116
[10] = Escherichia coli, BW25113, read-out: MIC E. coli BW25113
[11] = Escherichia coli, DSM1116, read-out: MIC E. coli DSM1116

E. coli DNA gyrase, sequence (P0AES4 whole entry): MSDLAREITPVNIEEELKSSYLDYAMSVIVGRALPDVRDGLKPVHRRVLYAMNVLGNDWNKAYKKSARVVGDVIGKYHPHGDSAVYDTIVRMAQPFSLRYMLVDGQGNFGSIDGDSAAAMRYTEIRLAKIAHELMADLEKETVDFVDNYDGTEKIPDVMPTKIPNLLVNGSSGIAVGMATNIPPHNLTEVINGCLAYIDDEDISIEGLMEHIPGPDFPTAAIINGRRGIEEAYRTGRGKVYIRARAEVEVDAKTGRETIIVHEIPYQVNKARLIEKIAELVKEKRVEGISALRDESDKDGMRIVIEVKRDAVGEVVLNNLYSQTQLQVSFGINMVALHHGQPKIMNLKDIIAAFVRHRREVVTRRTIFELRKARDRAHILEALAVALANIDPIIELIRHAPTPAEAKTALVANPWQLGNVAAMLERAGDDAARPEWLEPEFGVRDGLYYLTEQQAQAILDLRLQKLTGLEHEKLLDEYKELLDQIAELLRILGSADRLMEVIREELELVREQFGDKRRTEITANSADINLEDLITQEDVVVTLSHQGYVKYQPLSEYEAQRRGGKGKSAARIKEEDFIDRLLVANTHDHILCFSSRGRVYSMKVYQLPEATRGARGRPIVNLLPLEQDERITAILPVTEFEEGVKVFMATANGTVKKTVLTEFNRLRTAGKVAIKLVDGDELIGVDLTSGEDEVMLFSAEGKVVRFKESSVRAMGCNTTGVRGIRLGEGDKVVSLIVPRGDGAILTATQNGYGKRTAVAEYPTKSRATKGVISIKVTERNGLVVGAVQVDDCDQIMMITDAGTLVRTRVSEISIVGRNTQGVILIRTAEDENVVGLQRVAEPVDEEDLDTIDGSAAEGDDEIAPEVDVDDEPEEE

SMILES	MIC [1, 7] [µg/mL]	MIC [2] [µg/mL]	MIC [3, 8] [µg/mL]	MIC [4] [µg/mL]	MIC [5, 9] [µg/mL]	CC50 [6] [µM]	Gyrase inhibition strong+ / weak − [6]	MIC ([1]; Mycolicibacterium phlei, DSM750, read-out: MIC M. phlei) [µg/mL]	MIC [3, 10] [µg/mL]	MIC [5, 11] [µg/mL]
COc1c(NC(=O)c2ccc(NC(=O)c3ccc(NC(=O)[C@H](Cc4c[nH]nn4)NC(=O)c4ccc(NC(=O)c5ccc(C#N)cc5)cc4)cn3)c(OC)c2O)ccc(C(=O)O)c1O [compound 4]	4 (≈ 4.68 µM)	0.125 (≈ 0.146 µM)	≤ 0.016	0.125 (≈ 0.146 µM)	0.031 (≈ 0.0363 µM)	0.012	+			
COc1c(NC(=O)c2ccc(NC(=O)c3ccc(NC(=O)[C@H](Cc4c[nH]nn4)NC(=O)c4ccc(NC(=O)[C@@H](C)Oc5ccc(O)cc5)cc4)cn3)c(OC)c2O)ccc(C(=O)O)c1O [compound 9]		2 (≈ 2.25 µM)	0.063 (≈ 0.0708 µM)	1 (≈ 1.12 µM)	0.063 (≈ 0.0708 µM)		+			
COc1c(NC(=O)c2ccc(NC(=O)c3ccc(NC(=O)[C@H](Cc4c[nH]nn4)NC(=O)c4ccc(NC(=O)c5ccc6ccccc6n5)cc4)cn3)c(OC)c2O)ccc(C(=O)O)c1O [compound 11]	0.5 (≈ 0.568 µM)	≤ 0.016	≤ 0.016	≤ 0.016	≤ 0.016	0.018	+			
COc1c(NC(=O)c2ccc(NC(=O)c3ccc(NC(=O)[C@H](Cc4c[nH]nn4)NC(=O)c4ccc(NC(=O)c5cc6ccccc6cn5)cc4)cn3)c(OC)c2O)ccc(C(=O)O)c1O [compound 12]		0.063 (≈ 0.0715 µM)		0.063 (≈ 0.0715 µM)			+	1 (≈ 1.14 µM)	≤ 0.016	≤ 0.016
COc1c(NC(=O)c2ccc(NC(=O)c3ccc(NC(=O)[C@H](Cc4c[nH]nn4)NC(=O)c4ccc(NC(=O)c5cnc6ccccc6c5)cc4)cn3)c(OC)c2O)ccc(C(=O)O)c1O [compound 13]	1 (≈ 1.14 µM)	0.125 (≈ 0.142 µM)	≤ 0.016	0.125 (≈ 0.142 µM)	0.031 (≈ 0.0352 µM)		+			
COc1c(NC(=O)c2ccc(NC(=O)c3ccc(NC(=O)[C@H](Cc4c[nH]nn4)NC(=O)c4ccc(NC(=O)c5ccc6ncccc6c5)cc4)cn3)c(OC)c2O)ccc(C(=O)O)c1O [compound 14]	4 (≈ 4.54 µM)	0.125 (≈ 0.142 µM)	≤ 0.016	0.25 (≈ 0.284 µM)	0.016 (≈ 0.0182 µM)		+			
COc1c(NC(=O)c2ccc(NC(=O)c3ccc(NC(=O)[C@H](Cc4c[nH]nn4)NC(=O)c4ccc(NC(=O)c5ccc6nc(C)ccc6c5)cc4)cn3)c(OC)c2O)ccc(C(=O)O)c1O [compound 16]							+			
COc1c(NC(=O)c2ccc(NC(=O)c3ccc(NC(=O)[C@H](Cc4c[nH]nn4)NC(=O)c4ccc(NC(=O)c5c[nH]c6ccccc6c5=O)cc4)cn3)c(OC)c2O)ccc(C(=O)O)c1O [compound 17]	8 (≈ 8.92 µM)	≤ 0.016	0.063 (≈ 0.0702 µM)	≤ 0.016	0.031 (≈ 0.0346 µM)		+			
CCn1cc(C(=O)Nc2ccc(C(=O)N[C@@H](Cc3c[nH]nn3)C(=O)Nc3ccc(C(=O)Nc4ccc(C(=O)Nc5ccc(C(=O)O)c(O)c5OC)c(O)c4OC)nc3)cc2)c(=O)c2ccc(C)nc21 [compound 18]	≥ 8	0.031 (≈ 0.033 µM)	0.063 (≈ 0.067 µM)	0.063 (≈ 0.067 µM)	0.031 (≈ 0.033 µM)		−			
CCn1cc(C(=O)Nc2ccc(C(=O)N[C@@H](Cc3c[nH]nn3)C(=O)Nc3ccc(C(=O)Nc4ccc(C(=O)Nc5ccc(C(=O)O)c(O)c5OC)c(O)c4OC)nc3)cc2)c(=O)c2cc3c(cc21)OCO3 [compound 19]	0.25 (≈ 0.258 µM)	0.016 (≈ 0.0165 µM)	≤ 0.016	0.031 (≈ 0.032 µM)	0.016 (≈ 0.0165 µM)		−			
COc1c(NC(=O)c2ccc(NC(=O)c3ccc(NC(=O)[C@H](Cc4c[nH]nn4)NC(=O)c4ccc(NC(=O)c5cc(=O)c6cc(F)ccc6o5)cc4)cn3)c(OC)c2O)ccc(C(=O)O)c1O [compound 20]	2 (≈ 2.18 µM)	0.063 (≈ 0.0688 µM)	≤ 0.016	0.125 (≈ 0.136 µM)	≤ 0.016		+			
COc1c(NC(=O)c2ccc(NC(=O)c3ccc(NC(=O)[C@H](Cc4c[nH]nn4)NC(=O)c4ccc(NC(=O)c5cc6cc(O)ccc6[nH]5)cc4)cn3)c(OC)c2O)ccc(C(=O)O)c1O [compound 21]	4 (≈ 4.52 µM)	1 (≈ 1.13 µM)		1 (≈ 1.13 µM)	0.063 (≈ 0.0712 µM)		+		0.125 (≈ 0.141 µM)	
COc1c(NC(=O)c2ccc(NC(=O)c3ccc(NC(=O)[C@H](Cc4c[nH]nn4)NC(=O)c4ccc(NC(=O)c5ccc6ncsc6c5)cc4)cn3)c(OC)c2O)ccc(C(=O)O)c1O [compound 22]	2 (≈ 2.26 µM)	0.125 (≈ 0.141 µM)	≤ 0.016	0.125 (≈ 0.141 µM)	≤ 0.016	0.043	+			
COc1c(NC(=O)c2ccc(NC(=O)c3ccc(NC(=O)[C@H](Cc4c[nH]nn4)NC(=O)c4ccc(NC(=O)c5ccc6nc[nH]c6c5)cc4)cn3)c(OC)c2O)ccc(C(=O)O)c1O [compound 23]	8 (≈ 9.2 µM)	2 (≈ 2.3 µM)		2 (≈ 2.3 µM)			+		0.125 (≈ 0.144 µM)	0.125 (≈ 0.144 µM)
COc1c(NC(=O)c2ccc(NC(=O)c3ccc(NC(=O)[C@H](Cc4c[nH]nn4)NC(=O)c4ccc(NC(=O)c5ccc6nn[nH]c6c5)cc4)cn3)c(OC)c2O)ccc(C(=O)O)c1O [compound 24]	8 (≈ 9.19 µM)	0.5 (≈ 0.574 µM)	0.125 (≈ 0.144 µM)	0.5 (≈ 0.574 µM)	0.125 (≈ 0.144 µM)		+			
